Laboratory results: patent publication US6114310A, “Efflux pump inhibitors” (priority 1998, dated 2000)

Test system: Pseudomonas aeruginosa PAM1001
Assay: microbe, parasite or virus in culture
Assay type: cell-based
Summary of the method: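 Checkerboard broth microdilution (NCCLS) with the efflux pump inhibitor and levofloxacin, each diluted along one axis of the plate, in Mueller Hinton Broth. Inoculum 5×10^5 CFU/ml from early-log culture; incubation 20 h at 35° C. Growth read at 650 nm and visually.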

[1] = Table 1, EPI Conc. μg/ml (number not given; column between 10 and 40 μg/ml)
[2] = Table 2, EPI Conc. μg/ml (number not given; column between 10 and 40 μg/ml)
[3] = Table 3, EPI Conc. μg/ml (number not given; column between 10 and 40 μg/ml)
[4] = Table 4, EPI Conc. μg/ml (number not given; column between 10 and 40 μg/ml)

D-Ornithyl-β-[N-(isobutyl)]alanine quinoline-3-amide [Compound 40 (Table 3)]
Levofloxacin MIC Against P. aeruginosa PAM1001 in Presence of Efflux Pump Inhibitor (EPI), Minimum Inhibitory Concentration (Table 1, EPI Conc. 0 μg/ml): 4 µg/mL | Levofloxacin MIC Against P. aeruginosa PAM1001 in Presence of Efflux Pump Inhibitor (EPI), Minimum Inhibitory Concentration (Table 1, EPI Conc. 0.625 μg/ml): 4 µg/mL | Levofloxacin MIC Against P. aeruginosa PAM1001 in Presence of Efflux Pump Inhibitor (EPI), Minimum Inhibitory Concentration (Table 1, EPI Conc. 5 μg/ml): 1 µg/mL | Levofloxacin MIC Against P. aeruginosa PAM1001 in Presence of Efflux Pump Inhibitor (EPI), Minimum Inhibitory Concentration (Table 1, EPI Conc. 10 μg/ml): 0.06 µg/mL | Levofloxacin MIC Against P. aeruginosa PAM1001 in Presence of Efflux Pump Inhibitor (EPI), Minimum Inhibitory Concentration (Table 1, EPI Conc. 40 μg/ml): 0.015 µg/mL | Levofloxacin MIC Against P. aeruginosa PAM1001 in Presence of Efflux Pump Inhibitor (EPI), Minimum Inhibitory Concentration (Table 1, EPI Conc. […]): 4 µg/mL | Levofloxacin MIC Against P. aeruginosa PAM1001 in Presence of Efflux Pump Inhibitor (EPI), Minimum Inhibitory Concentration [1]: 0.03 µg/mL | Levofloxacin MIC Against P. aeruginosa PAM1001 in Presence of Efflux Pump Inhibitor (EPI), Minimum Inhibitory Concentration (Table 2, EPI Conc. 0 μg/ml): 4 µg/mL | Levofloxacin MIC Against P. aeruginosa PAM1001 in Presence of Efflux Pump Inhibitor (EPI), Minimum Inhibitory Concentration (Table 2, EPI Conc. 0.625 μg/ml): 4 µg/mL | Levofloxacin MIC Against P. aeruginosa PAM1001 in Presence of Efflux Pump Inhibitor (EPI), Minimum Inhibitory Concentration (Table 2, EPI Conc. 5 μg/ml): 1 µg/mL | Levofloxacin MIC Against P. aeruginosa PAM1001 in Presence of Efflux Pump Inhibitor (EPI), Minimum Inhibitory Concentration (Table 2, EPI Conc. 10 μg/ml): 0.06 µg/mL | Levofloxacin MIC Against P. aeruginosa PAM1001 in Presence of Efflux Pump Inhibitor (EPI), Minimum Inhibitory Concentration (Table 2, EPI Conc. 40 μg/ml): 0.06 µg/mL | Levofloxacin MIC Against P. aeruginosa PAM1001 in Presence of Efflux Pump Inhibitor (EPI), Minimum Inhibitory Concentration [2]: 0.06 µg/mL | Levofloxacin MIC Against P. aeruginosa PAM1001 in Presence of Efflux Pump Inhibitor (EPI), Minimum Inhibitory Concentration (Table 3, EPI Conc. 0 μg/ml): 4 µg/mL | Levofloxacin MIC Against P. aeruginosa PAM1001 in Presence of Efflux Pump Inhibitor (EPI), Minimum Inhibitory Concentration (Table 3, EPI Conc. 0.625 μg/ml): 4 µg/mL | Levofloxacin MIC Against P. aeruginosa PAM1001 in Presence of Efflux Pump Inhibitor (EPI), Minimum Inhibitory Concentration (Table 3, EPI Conc. 5 μg/ml): 0.06 µg/mL | Levofloxacin MIC Against P. aeruginosa PAM1001 in Presence of Efflux Pump Inhibitor (EPI), Minimum Inhibitory Concentration (Table 3, EPI Conc. 10 μg/ml): 0.015 µg/mL | Levofloxacin MIC Against P. aeruginosa PAM1001 in Presence of Efflux Pump Inhibitor (EPI), Minimum Inhibitory Concentration (Table 3, EPI Conc. 40 μg/ml): 0.015 µg/mL | Levofloxacin MIC Against P. aeruginosa PAM1001 in Presence of Efflux Pump Inhibitor (EPI), Minimum Inhibitory Concentration [3]: 0.015 µg/mL | Levofloxacin MIC Against P. aeruginosa PAM1001 in Presence of Efflux Pump Inhibitor (EPI), Minimum Inhibitory Concentration (Table 4, EPI Conc. 0 μg/ml): 4 µg/mL | Levofloxacin MIC Against P. aeruginosa PAM1001 in Presence of Efflux Pump Inhibitor (EPI), Minimum Inhibitory Concentration (Table 4, EPI Conc. 0.625 μg/ml): 4 µg/mL | Levofloxacin MIC Against P. aeruginosa PAM1001 in Presence of Efflux Pump Inhibitor (EPI), Minimum Inhibitory Concentration (Table 4, EPI Conc. 5 μg/ml): 1 µg/mL | Levofloxacin MIC Against P. aeruginosa PAM1001 in Presence of Efflux Pump Inhibitor (EPI), Minimum Inhibitory Concentration (Table 4, EPI Conc. 10 μg/ml): 0.25 µg/mL | Levofloxacin MIC Against P. aeruginosa PAM1001 in Presence of Efflux Pump Inhibitor (EPI), Minimum Inhibitory Concentration (Table 4, EPI Conc. 40 μg/ml): 0.06 µg/mL | Levofloxacin MIC Against P. aeruginosa PAM1001 in Presence of Efflux Pump Inhibitor (EPI), Minimum Inhibitory Concentration [4]: 0.06 µg/mL

D-Lysyl-β-N-(Cyclopropylmethyl)alanine Quinoline-3-amide Trifluoroacetate [Example 27]
Levofloxacin MIC Against P. aeruginosa PAM1001 in Presence of Efflux Pump Inhibitor (EPI), Minimum Inhibitory Concentration (Table 1, EPI Conc. 0 μg/ml): 4 µg/mL | Levofloxacin MIC Against P. aeruginosa PAM1001 in Presence of Efflux Pump Inhibitor (EPI), Minimum Inhibitory Concentration (Table 1, EPI Conc. 0.625 μg/ml): 4 µg/mL | Levofloxacin MIC Against P. aeruginosa PAM1001 in Presence of Efflux Pump Inhibitor (EPI), Minimum Inhibitory Concentration (Table 1, EPI Conc. 5 μg/ml): 0.125 µg/mL | Levofloxacin MIC Against P. aeruginosa PAM1001 in Presence of Efflux Pump Inhibitor (EPI), Minimum Inhibitory Concentration (Table 1, EPI Conc. 10 μg/ml): 0.125 µg/mL | Levofloxacin MIC Against P. aeruginosa PAM1001 in Presence of Efflux Pump Inhibitor (EPI), Minimum Inhibitory Concentration (Table 1, EPI Conc. 40 μg/ml): 0.06 µg/mL | Levofloxacin MIC Against P. aeruginosa PAM1001 in Presence of Efflux Pump Inhibitor (EPI), Minimum Inhibitory Concentration [1]: 0.125 µg/mL | Levofloxacin MIC Against P. aeruginosa PAM1001 in Presence of Efflux Pump Inhibitor (EPI), Minimum Inhibitory Concentration (Table 2, EPI Conc. 0 μg/ml): 4 µg/mL | Levofloxacin MIC Against P. aeruginosa PAM1001 in Presence of Efflux Pump Inhibitor (EPI), Minimum Inhibitory Concentration (Table 2, EPI Conc. 0.625 μg/ml): 4 µg/mL | Levofloxacin MIC Against P. aeruginosa PAM1001 in Presence of Efflux Pump Inhibitor (EPI), Minimum Inhibitory Concentration (Table 2, EPI Conc. 5 μg/ml): 2 µg/mL | Levofloxacin MIC Against P. aeruginosa PAM1001 in Presence of Efflux Pump Inhibitor (EPI), Minimum Inhibitory Concentration (Table 2, EPI Conc. 10 μg/ml): 2 µg/mL | Levofloxacin MIC Against P. aeruginosa PAM1001 in Presence of Efflux Pump Inhibitor (EPI), Minimum Inhibitory Concentration (Table 2, EPI Conc. 40 μg/ml): 2 µg/mL | Levofloxacin MIC Against P. aeruginosa PAM1001 in Presence of Efflux Pump Inhibitor (EPI), Minimum Inhibitory Concentration [2]: 2 µg/mL | Levofloxacin MIC Against P. aeruginosa PAM1001 in Presence of Efflux Pump Inhibitor (EPI), Minimum Inhibitory Concentration (Table 3, EPI Conc. 0 μg/ml): 4 µg/mL | Levofloxacin MIC Against P. aeruginosa PAM1001 in Presence of Efflux Pump Inhibitor (EPI), Minimum Inhibitory Concentration (Table 3, EPI Conc. 0.625 μg/ml): 4 µg/mL | Levofloxacin MIC Against P. aeruginosa PAM1001 in Presence of Efflux Pump Inhibitor (EPI), Minimum Inhibitory Concentration (Table 3, EPI Conc. 5 μg/ml): 0.06 µg/mL | Levofloxacin MIC Against P. aeruginosa PAM1001 in Presence of Efflux Pump Inhibitor (EPI), Minimum Inhibitory Concentration (Table 3, EPI Conc. 10 μg/ml): 0.03 µg/mL | Levofloxacin MIC Against P. aeruginosa PAM1001 in Presence of Efflux Pump Inhibitor (EPI), Minimum Inhibitory Concentration (Table 3, EPI Conc. 40 μg/ml): 0.03 µg/mL | Levofloxacin MIC Against P. aeruginosa PAM1001 in Presence of Efflux Pump Inhibitor (EPI), Minimum Inhibitory Concentration [3]: 0.03 µg/mL | Levofloxacin MIC Against P. aeruginosa PAM1001 in Presence of Efflux Pump Inhibitor (EPI), Minimum Inhibitory Concentration (Table 4, EPI Conc. 0 μg/ml): 4 µg/mL | Levofloxacin MIC Against P. aeruginosa PAM1001 in Presence of Efflux Pump Inhibitor (EPI), Minimum Inhibitory Concentration (Table 4, EPI Conc. 0.625 μg/ml): 4 µg/mL | Levofloxacin MIC Against P. aeruginosa PAM1001 in Presence of Efflux Pump Inhibitor (EPI), Minimum Inhibitory Concentration (Table 4, EPI Conc. 5 μg/ml): 2 µg/mL | Levofloxacin MIC Against P. aeruginosa PAM1001 in Presence of Efflux Pump Inhibitor (EPI), Minimum Inhibitory Concentration (Table 4, EPI Conc. 10 μg/ml): 2 µg/mL | Levofloxacin MIC Against P. aeruginosa PAM1001 in Presence of Efflux Pump Inhibitor (EPI), Minimum Inhibitory Concentration (Table 4, EPI Conc. 40 μg/ml): 1 µg/mL | Levofloxacin MIC Against P. aeruginosa PAM1001 in Presence of Efflux Pump Inhibitor (EPI), Minimum Inhibitory Concentration (Table 4, EPI Conc. […]): 4 µg/mL | Levofloxacin MIC Against P. aeruginosa PAM1001 in Presence of Efflux Pump Inhibitor (EPI), Minimum Inhibitory Concentration [4]: 1 µg/mL
